“Also recorded” adds a separate entry of the source.
Assays:
[1] = system: MB436-shBACH1 and BM1-shBACH1 (and shCont) xenograft TNBC tumors; test: BACH1-depleted xenograft TNBC tumors treated with metformin; type: in vivo, mouse
Description: (§2) Two million human breast cancer cells (MDA-MB-436-shCont, MDA-MB-436-shBACH1, BM1-shBACH1, or BM1-shCont) in 100 μl PBS were injected into the mammary fat pads of 5 to 6 weeks old athymic nude female mice (Charles River Laboratories). When tumors were about 20-30 or 50 mm^3 in volume, hemin (50 mg/kg/day) or vehicle (20 mM NaOH in phosphate buffered saline) was injected intraperitoneally for 10 days prior to metformin treatment for 8 weeks. Metformin (200 mg/kg for MDA-MB-436 cells or 300 mg/kg for BM1-cells) was provided in drinking water ad libidum. Tumor growth was monitored weekly by caliper measurement in two dimensions to generate ellipsoid volumes using an equation of vol.=0.4×(L×W^2).

[2] = system: non-malignant mammary epithelial cells (184A1 and MCF10A); test: Cell viability (calcein AM) of non-malignant mammary epithelial cells; type: cell-based, human; conditions: 48 hours
Description: (§1) Breast cancer cells (5,000 cells/well) and non-malignant mammary epithelial cells (8,000 cells/well) were plated on 96-well plates to observe growth of cells every 4 hours by phase contrast imaging using an IncuCyte Zoom Live Cell Analysis system (Essen Bioscience). After 24 hours of plating, inhibitors were added and monitored until control cells reached 100% confluent. To determine cell viability, cells were seeded in black walled 96-well plates overnight and treated with inhibitors for 48 hours. Calcein AM (R&D system) in PBS was then added and incubated for 1 hour at 37° C. Fluorescence was determined using a Victor3 plate reader (PerkinElmer) with excitation at 420 nm and emission at 520 nm. The absorbance was used to reflect live cell numbers and was normalized to those in control with vehicles and shown as relative viability (%).

[3] = metformin 200-300 mg/kg; cited from earlier work
[4] = in vivo; cited from earlier work
[5] = system: TNBC cells (BM1, MB436, MB468, BT549); type: cell-based, human
Description: TNBC cell lines stably knocked down with lenti-viral shRNA for BACH1 were constructed and maintained as described previously. Gene expression analysis of cultured cells and isolated tumor tissues used a Reverse transcriptase kit followed by Roche96 cycler for real time mRNA quantification and Lycor imaging for immunoblotting. For in vitro cell viability assay with mitochondrial inhibitors, TNBC cells (2×10^3-5×10^3/well) seeded on 96 well plates overnight with culture media (DMEM with 25 mM Glucose) were treated with inhibitors in fresh culture media (DMEM with 1.25 mM Glucose) for 48 and 72 hours and stained with calcein AM and/or monitored for cellular confluency using an IncuCyte Zoom Live Cell Analysis system. Extracellular flux analyzer was used to assay metabolic phenotypes of BACH1-depleted TNBC cells and TNBC cells that are treated with hemin overnight before assays. For bioinformatics analysis using primary patient data cohort (TCGA), cBioportal and R were used.
as §1

C3(1)-TAg tumors = test: Transgenic TNBC mouse model C3(1)-TAg treated with metformin; type: in vivo; conditions: metformin 200 mg/kg/day, absence of hemin; very low BACH1 expression
Description: For a transgenic TNBC mouse model, C3(1)-TAg, mice (n=5/group) were treated with metformin (200 mg/kg/day), after 10 days of mice developed palpable tumors (about 25 mm^3), at age of 15 weeks. Tumor volume was assayed by caliper measurement twice per week.

MB436 xenograft tumors = conditions: hemin 50 mg/kg/day i.p. 10 consecutive days prior to metformin 200 mg/kg
Description: as §2

[6] = system: NAD+/NADH in shBACH1 TNBC cells; test: NAD/NADH-Glo measurement; type: cell-based, human; conditions: pyruvate 2.5 mM added to growth media
Description: NAD(H) was measured using the NAD/NADH-Glo Assay kit (Promega) in accordance with the manufacturer's protocol. Lactate produced by cells were measured using the media that 5×10^5 cells were plated on 6 well plates in 2 ml media containing 1.25 mM glucose for 3 days or overnight. Harvested media was used for L-Lactate Assay Kit I (Eton Bioscience). For glucose consumption measurement, media from the cells cultured in 12 well plates were freshly replenished with media containing 5 mM glucose and collected after 21 hours for glucose measurement using Glucose Assay Kit I (Eton Bioscience).

[7] = Cell viability (calcein AM) of non-malignant mammary epithelial cells; type: cell-based, human; conditions: human, non-malignant mammary epithelial cells (184A1 and MCF10A), read-out: reduction of cell viability of non-malignant mammary epithelial cells
Description: as §1

CN(C)C(=N)N=C(N)N [metformin]
growth of BM1 xenograft tumors expressing shBACH1 ([1]; metformin 300 mg/kg/day): Comparable results | growth of TNBC tumors stably expressing shBACH1 ([1]; metformin 200-300 mg/kg in drinking water, within a week of administration, MB436-shBACH1): drastically suppressed; also recorded: reduction of MB436-shBACH1 tumor volume | control tumor growth ([1]; metformin alone, 200-300 mg/kg in drinking water, control (shCont) xenografts): no effect on control tumor growth | tumor-free mice ([1]; shBACH1 MB436 xenograft mice following metformin treatment): a significant fraction of shBACH xenograft mice were tumor-free; also recorded: a significant fraction of shBACH1 MB436 xenograft mice were tumor-free | viability of non-malignant mammary epithelial cells [2]: did not alter the viability | mouse tumor and plasma concentrations [3]: 3 to 12 µM | levels in metformin-treated human diabetic patients [4]: ~10 µM | metformin response on overexpression of wt BACH1 in MB436-shBACH1 cells [5]: generated a metformin-resistance phenotype | resistance to metformin on expression of Mut-Bach1 following heme treatment ([5]; BM1-shBACH1 and MB436-shBACH1 cells): restored resistance to metformin | sensitivity to metformin on BACH knockdown ([5]; MB436 or BM1 cells): increased sensitivity to metformin treatment | inhibitory effect of metformin after addition of pyruvate to growth media ([5]; pyruvate 2.5 mM, shBACH1 TNBC cells): completely rescued the inhibitory effect of metformin | metformin resistance and cell growth after silencing COX15 or UQCRC1 ([5]; siRNA for COX15 or UQCRC1 in BM1-shBACH1 cells): completely restored metformin resistance | sensitivity of C3(1)-TAg mice tumors (C3(1)-TAg tumors): highly sensitive to metformin | breast tumor growth / volume (MB436 xenograft tumors): neither hemin nor metformin alone significantly altered tumor growth

CC(=O)C(=O)O [pyruvate]
NAD+ levels [6]: increased

C=C(C)[C@H]1Cc2c(ccc3c2O[C@@H]2COc4cc(OC)c(OC)cc4[C@@H]2C3=O)O1 [rotenone]
cytotoxicity at 48 h [7]: 25 to 50%

Source: patent US10888569B1, “Methods and compositions for treating cancer” (THE UNIVERSITY OF CHICAGO, priority 2017, dated 2021)
